Data: article PMC3286601 (Biochemistry, 2012)
Read-outs that look alike come from different tables or passages of the source.

Key:
[1] = biological target: T1, wild-type Pseudomonas sp. strain CBS3 4-HB-CoA thioesterase (Pseudomonas sp., UniProt P56653); test: Ligand binding to wild-type thioesterase by stopped-flow fluorescence quenching; conditions: for kobs (apparent pseudo-first order binding rate constant): 0.54 µM thioesterase; for koff: read-out: koff (dissociation rate constant); for kon: read-out: kon (association rate constant)
T1 sequence (P56653 1-141): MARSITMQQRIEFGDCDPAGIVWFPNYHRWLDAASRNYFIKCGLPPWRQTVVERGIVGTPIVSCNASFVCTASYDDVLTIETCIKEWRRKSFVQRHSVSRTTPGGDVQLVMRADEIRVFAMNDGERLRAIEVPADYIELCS

[2] = biological target: T1, wild-type Pseudomonas sp. strain CBS3 4-HB-CoA thioesterase; test: Steady-state product inhibition of thioesterase-catalyzed hydrolysis of 4-HB-CoA; format: biochemical
[3] = biological target: T1, wild-type Pseudomonas sp. strain CBS3 4-HB-CoA thioesterase; format: biochemical
[4] = biological target: T1, wild-type Pseudomonas sp. strain CBS3 4-HB-CoA thioesterase; format: biochemical; remark: listed apart in the source
[5] = conjugate acid of the CoA thiolate anion leaving group; source not stated; cited from earlier work
[6] = biological target: T1, wild-type Pseudomonas sp. strain CBS3 4-HB-CoA thioesterase; test: Steady-state multiple-turnover time courses; format: biochemical
D17N thioesterase = conditions: inert D17N thioesterase complex, steady-state fluorescence quenching; ref [5]; cited from earlier work
[7] = biological target: T1, wild-type Pseudomonas sp. strain CBS3 4-HB-CoA thioesterase; test: Steady-state kinetic constants; format: biochemical; conditions: substrate hydrolysis, pH 7.5, 25 °C
[8] = biological target: T1, wild-type Pseudomonas sp. strain CBS3 4-HB-CoA thioesterase; test: kcat pH rate profiles in H2O and D2O, solvent kinetic isotope effect on kcat; format: biochemical; conditions: for C1 (pH independent kcat plateau) / C2 (pH independent kcat plateau) / first break in kcat pH profile / second break in kcat pH profile: fit to equation 4

CC(C)(COP(=O)(O)OP(=O)(O)OC[C@H]1O[C@@H](n2cnc3c(N)ncnc32)[C@H](O)[C@@H]1OP(=O)(O)O)[C@@H](O)C(=O)NCCC(=O)NCCSCC(=O)c1ccc(O)cc1 [4-HP-CoA, 4-hydroxyphenacyl-CoA]
Kd [1]: 0.33 µM | kobs (apparent pseudo-first order binding rate constant) ([1]; 5.3 µM 4-HP-CoA, 50 mM K+HEPES pH 7.5, 25 °C): 350 ± 4 s⁻¹ | koff [1]: 20 ± 5 s⁻¹ | kon [1]: 5.9e+07 ± 1e+06 M⁻¹ s⁻¹

O=C(O)c1ccc(O)cc1 [4-HB, 4-hydroxybenzoate]
Ki [2]: 1200 ± 200 µM

CC(C)(COP(=O)(O)OP(=O)(O)OC[C@H]1O[C@@H](n2cnc3c(N)ncnc32)[C@H](O)[C@@H]1OP(=O)(O)O)[C@@H](O)C(=O)NCCC(=O)NCCS [CoA, coenzyme A]
Kd [3]: 300 µM | Kd [4]: 300 µM | pKa of the conjugate acid [5]: 9.7 | Kd [6]: 300 µM | Ki [2]: 250 ± 70 µM | Kii (intercept inhibition constant) ([2]; noncompetitive inhibition of 4-HB-CoA hydrolysis, pH 7.5, 25 °C): 900 ± 300 µM

CC(C)(COP(=O)(O)OP(=O)(O)OC[C@H]1O[C@@H](n2cnc3c(N)ncnc32)[C@H](O)[C@@H]1OP(=O)(O)O)[C@@H](O)C(=O)NCCC(=O)NCCSC(=O)c1ccc(O)cc1 [4-HB-CoA, 4-hydroxybenzoyl-CoA]
Kd (D17N thioesterase): 0.14 µM | steady-state kcat [7]: 18 s⁻¹ | Kd [1]: 0.2 µM | kobs (apparent pseudo-first order binding rate constant) ([1]; 5.0 µM 4-HB-CoA (b38 prints 4.0 µM), pH 7.5, 25 °C): 280 ± 30 s⁻¹ | koff [1]: 13 ± 5 s⁻¹ | kon [1]: 6.5e+07 ± 2e+06 M⁻¹ s⁻¹ | substrate-binding rate k1 ([1]; summary value in Conclusions): ~ 70 µM^−1s^−1 | pH independent isotope effect from ratio of C1 values ([8]; H2O/D2O): 3.8 | pH independent isotope effect from ratio of C2 values ([8]; H2O/D2O): 3.7 | C1 (pH independent kcat plateau) ([8]; buffered D2O): 1.3 ± 0.2 | C2 (pH independent kcat plateau) ([8]; buffered D2O): 15 ± 1 | first break in kcat pH profile ([8]; buffered D2O): 5.1 ± 0.1 | second break in kcat pH profile ([8]; buffered D2O): 8.0 ± 0.1 | C1 (pH independent kcat plateau) ([8]; buffered H2O): 5.0 ± 0.1 | C2 (pH independent kcat plateau) ([8]; buffered H2O): 55 ± 4 | first break in kcat pH profile ([8]; buffered H2O): 5.15 ± 0.09 | second break in kcat pH profile ([8]; buffered H2O): 7.70 ± 0.08 | D2O solvent kinetic isotope effect (SKIE) on kcat ([8]; pH independent): 3.7–3.8
